Assay results: patent publication US20240390295A1, “METHODS FOR TREATING DEPRESSION” (JANSSEN PHARMACEUTICA NV, priority 2020, published 2024)

System: adult patients (aged 18-64 years) with TRD
Test: Clinician-reported adverse events: incidence and recurrence by Week 1/Week 4 frequency, pooled studies 1 and 2 (ESK + OAD)
Format: in vivo, human
Text: Data were pooled from adult patients (aged 18-64 years) with TRD. Patients had recurrent or single-episode (>2 years) MDD (DSM-5), a Clinician-Rated Inventory of Depressive Symptomatology score of >3 and a total Montgomery-Åsberg Depression Rating Scale (MADRS) score of >2. At screening, depressive symptoms had been non-responsive to adequate trials of ≥1 and ≤5 commercially available OAD in the current depressive episode. Non response was further confirmed by a prospective trial of a different OAD lasting ≥4 weeks and during the screening phase.
In brief, study 1 was a double-blind, placebo-controlled relapse prevention trial comparing the efficacy of ESK versus placebo nasal spray, both in conjunction with a Food and Drug Administration (FDA)-approved OAD, in delaying relapse of depressive symptoms in patients with TRD who were either in stable remission or stable response after four months' treatment with ESK in conjunction with a FDA-approved OAD. Study 2 was an open-label, multicenter study that assessed the long-term safety and efficacy of ESK in conjunction with an FDA-approved OAD in patients with TRD.
The analysis was limited to the two doses of ESK (56 mg and 84 mg) approved for use by the FDA for patients with TRD. Patients received ESK (56 or 84 mg) in conjunction with an OAD twice weekly during the induction phase (Weeks 1-4); once weekly during Weeks 5-8 of the optimization phase: either once weekly or every other week during the remainder of the 12-week optimization phase and the maintenance phase (individualized according to the severity of depressive symptoms [MADRS total score≤/>12] and tolerability).
Patients were monitored for >90 minutes after ESK administration at each treatment session, after which time they could leave the clinical site at the clinician's discretion. AEs were monitored and reported, and safety assessments, including clinical laboratory tests and physical examinations, were conducted throughout the study. Clinician-reported AEs were categorized as mild, moderate, or severe based on clinical judgement (Table 1).
This analysis included any treatment sessions in which patients received ESK (either open-label or blinded). The occurrence and severity of AEs were assessed within the following timeframes: Month 1 (Week 1 and Weeks 2-4), Month 2 (Weeks 5-8), Months 3-6 and Months 6-12. Severity of clinician-reported AEs were scored as 0 (no AE), 1 (mild), 2 (moderate), and 3 (severe). To examine AEs in individual patients over time, only patients who received at least one ESK dose in the following period were included in the analyses of each respective period. Thus, patient data were retained in (i) Week 1 if the patient received ≥1 ESK dose in Weeks 2-4, (ii) Weeks 2-4 if the patient received ≥1 ESK dose in Weeks 5-8, (iii) Weeks 5-8 if the patient received ≥1 ESK dose in Months 3-6, and (iv) Months 3-6 if the patient received ≥1 ESK dose in Months 6-12.
The five most commonly reported treatment-emergent events occurring with ESK plus OAD therapy (dissociation, dizziness, nausea, sedation, and vertigo) were evaluated, each of which has an incidence ≥5% and at least a 2-fold greater incidence than with placebo plus an OAD. 14 Increases in BP were also examined.
Week 1 and Week 4 were set a priori as index weeks because they are the beginning and end of the induction period. Frequencies and maximum-reported severities of AEs reported during these index weeks served as stratifying variables by which to examine recurrence and severities of AE recurrences in future timeframes.

[1] = Months 3-6, overall rate for timeframe
[2] = Months 6-12, AE twice in Week 1
[3] = Months 6-12, overall rate for timeframe
[4] = Week 1, overall rate for timeframe

Structure (SMILES): CN[C@]1(c2ccccc2Cl)CCCCC1=O [esketamine, (S)-2-(2-chlorophenyl)-2-(methylamino)cyclohexanone]
- vomiting during later periods (8 participants who had vomiting twice during week 1): none experienced vomiting during later periods
- participants experiencing an AE after any subsequent treatment session (AE not reported in week 1): < 10%
- Clinician-reported dissociation (Months 3-6, AE once in Week 1): 26.2%
- Clinician-reported increased blood pressure (Months 3-6, AE once in Week 1): 36.4%
- Clinician-reported sedation (Months 3-6, AE once in Week 1): 0%
- Dizziness (Months 3-6, AE once in Week 1): 31.2%
- Nausea (Months 3-6, AE once in Week 1): 20.8%
- Vertigo (Months 3-6, AE once in Week 1): 28.6%
- Clinician-reported dissociation (Months 3-6, AE twice in Week 1): 61.1%
- Clinician-reported increased blood pressure (Months 3-6, AE twice in Week 1): 40.0%
- Clinician-reported sedation (Months 3-6, AE twice in Week 1): 36.4%
- Dizziness (Months 3-6, AE twice in Week 1): 53.0%
- Nausea (Months 3-6, AE twice in Week 1): 33.3%
- Vertigo (Months 3-6, AE twice in Week 1): 59.5%
- Clinician-reported dissociation (Months 3-6, No AE in Week 1): 7.6%
- Clinician-reported increased blood pressure (Months 3-6, No AE in Week 1): 3.0%
- Clinician-reported sedation (Months 3-6, No AE in Week 1): 3.0%
- Dizziness (Months 3-6, No AE in Week 1): 7.5%
- Nausea (Months 3-6, No AE in Week 1): 4.5%
- Vertigo (Months 3-6, No AE in Week 1): 3.4%
- Anxiety (Months 3-6, None in Week 1): 1.2%
- Feeling Drunk (Months 3-6, None in Week 1): 0.2%
- Hypoesthesia (Months 3-6, None in Week 1): 2.5%
- Lethargy (Months 3-6, None in Week 1): 0.2%
- Vomiting (Months 3-6, None in Week 1): 1.9%
- Anxiety (Months 3-6, Once in Week 1): 10.0%
- Feeling Drunk (Months 3-6, Once in Week 1): 16.7%
- Hypoesthesia (Months 3-6, Once in Week 1): 20.7%
- Lethargy (Months 3-6, Once in Week 1): 40.0%
- Vomiting (Months 3-6, Once in Week 1): 21.1%
- Anxiety (Months 3-6, Overall): 1.5%
- Feeling Drunk (Months 3-6, Overall): 1.5%
- Hypoesthesia (Months 3-6, Overall): 5.2%
- Lethargy (Months 3-6, Overall): 0.5%
- Vomiting (Months 3-6, Overall): 2.5%
- Anxiety (Months 3-6, Twice in Week 1): 50.0%
- Feeling Drunk (Months 3-6, Twice in Week 1): 100.0%
- Hypoesthesia (Months 3-6, Twice in Week 1): 73.3%
- Lethargy (Months 3-6, Twice in Week 1): 0%
- Vomiting (Months 3-6, Twice in Week 1): 0%
- Clinician-reported dissociation [1]: 14.4%
- Clinician-reported increased blood pressure [1]: 4.2%
- Clinician-reported sedation [1]: 3.5%
- Dizziness [1]: 15.6%
- Nausea [1]: 7.2%
- Vertigo [1]: 8.2%
- Clinician-reported dissociation (Months 6-12, AE once in Week 1): 18.5%
- Clinician-reported increased blood pressure (Months 6-12, AE once in Week 1): 9.1%
- Clinician-reported sedation (Months 6-12, AE once in Week 1): 0%
- Dizziness (Months 6-12, AE once in Week 1): 20.8%
- Nausea (Months 6-12, AE once in Week 1): 18.2%
- Vertigo (Months 6-12, AE once in Week 1): 23.8%
- Clinician-reported dissociation [2]: 33.3%
- Clinician-reported increased blood pressure [2]: 20.0%
- Clinician-reported sedation [2]: 45.5%
- Dizziness [2]: 21.2%
- Nausea [2]: 8.3%
- Vertigo [2]: 38.1%
- Clinician-reported dissociation (Months 6-12, No AE in Week 1): 4.6%
- Clinician-reported increased blood pressure (Months 6-12, No AE in Week 1): 1.7%
- Clinician-reported sedation (Months 6-12, No AE in Week 1): 1.7%
- Dizziness (Months 6-12, No AE in Week 1): 4.0%
- Nausea (Months 6-12, No AE in Week 1): 4.9%
- Vertigo (Months 6-12, No AE in Week 1): 1.7%
- Anxiety (Months 6-12, None in Week 1): 2.1%
- Feeling Drunk (Months 6-12, None in Week 1): 0.2%
- Hypoesthesia (Months 6-12, None in Week 1): 1.6%
- Lethargy (Months 6-12, None in Week 1): 1.6%
- Vomiting (Months 6-12, None in Week 1): 1.9%
- Anxiety (Months 6-12, Once in Week 1): 0%
- Feeling Drunk (Months 6-12, Once in Week 1): 33.3%
- Hypoesthesia (Months 6-12, Once in Week 1): 13.8%
- Lethargy (Months 6-12, Once in Week 1): 0%
- Vomiting (Months 6-12, Once in Week 1): 10.5%
- Anxiety (Months 6-12, Overall): 2.2%
- Feeling Drunk (Months 6-12, Overall): 1.5%
- Hypoesthesia (Months 6-12, Overall): 3.2%
- Lethargy (Months 6-12, Overall): 0.2%
- Vomiting (Months 6-12, Overall): 2.2%
- Anxiety (Months 6-12, Twice in Week 1): 50.0%
- Feeling Drunk (Months 6-12, Twice in Week 1): 85.7%
- Hypoesthesia (Months 6-12, Twice in Week 1): 40.0%
- Lethargy (Months 6-12, Twice in Week 1): 0%
- Vomiting (Months 6-12, Twice in Week 1): 0%
- Clinician-reported dissociation [3]: 8.8%
- Clinician-reported increased blood pressure [3]: 2.2%
- Clinician-reported sedation [3]: 2.5%
- Dizziness [3]: 8.1%
- Nausea [3]: 6.7%
- Vertigo [3]: 5.0%
- Clinician-reported dissociation [4]: 17.1%
- Clinician-reported increased blood pressure [4]: 4.4%
- Clinician-reported sedation [4]: 3.9%
- Dizziness [4]: 21.1%
- Nausea [4]: 14.3%
- Vertigo [4]: 12.4%
